Source: US20020026053A1, “Novel 3-(substituted) -2- indolinones compounds and use thereof as inhibitors of protein kinase activity” (priority 1997, published 2002)

Target: T1, EGFR (Homo sapiens, UniProt P00533)
T1 construct: endogenous in cells; host or cells: A431 cells (lysate, captured with SUMO1 anti-EGFR antibody)
Test: Biochemical EGFR Assay
Design: concentration or dose not given beside the values
Outline: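 EGFR from A431 lysate was captured on anti-EGFR-coated wells and preincubated 30 min with compound (diluted 1:10 in TBS) at room temperature. After ATP/MnCl2 phosphorylation for 5 min, the reaction was stopped with EDTA. Phosphotyrosine was detected by ELISA (anti-phosphotyrosine, peroxidase conjugate, ABTS) at 410 nm.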

T1 sequence (P00533 25-1210): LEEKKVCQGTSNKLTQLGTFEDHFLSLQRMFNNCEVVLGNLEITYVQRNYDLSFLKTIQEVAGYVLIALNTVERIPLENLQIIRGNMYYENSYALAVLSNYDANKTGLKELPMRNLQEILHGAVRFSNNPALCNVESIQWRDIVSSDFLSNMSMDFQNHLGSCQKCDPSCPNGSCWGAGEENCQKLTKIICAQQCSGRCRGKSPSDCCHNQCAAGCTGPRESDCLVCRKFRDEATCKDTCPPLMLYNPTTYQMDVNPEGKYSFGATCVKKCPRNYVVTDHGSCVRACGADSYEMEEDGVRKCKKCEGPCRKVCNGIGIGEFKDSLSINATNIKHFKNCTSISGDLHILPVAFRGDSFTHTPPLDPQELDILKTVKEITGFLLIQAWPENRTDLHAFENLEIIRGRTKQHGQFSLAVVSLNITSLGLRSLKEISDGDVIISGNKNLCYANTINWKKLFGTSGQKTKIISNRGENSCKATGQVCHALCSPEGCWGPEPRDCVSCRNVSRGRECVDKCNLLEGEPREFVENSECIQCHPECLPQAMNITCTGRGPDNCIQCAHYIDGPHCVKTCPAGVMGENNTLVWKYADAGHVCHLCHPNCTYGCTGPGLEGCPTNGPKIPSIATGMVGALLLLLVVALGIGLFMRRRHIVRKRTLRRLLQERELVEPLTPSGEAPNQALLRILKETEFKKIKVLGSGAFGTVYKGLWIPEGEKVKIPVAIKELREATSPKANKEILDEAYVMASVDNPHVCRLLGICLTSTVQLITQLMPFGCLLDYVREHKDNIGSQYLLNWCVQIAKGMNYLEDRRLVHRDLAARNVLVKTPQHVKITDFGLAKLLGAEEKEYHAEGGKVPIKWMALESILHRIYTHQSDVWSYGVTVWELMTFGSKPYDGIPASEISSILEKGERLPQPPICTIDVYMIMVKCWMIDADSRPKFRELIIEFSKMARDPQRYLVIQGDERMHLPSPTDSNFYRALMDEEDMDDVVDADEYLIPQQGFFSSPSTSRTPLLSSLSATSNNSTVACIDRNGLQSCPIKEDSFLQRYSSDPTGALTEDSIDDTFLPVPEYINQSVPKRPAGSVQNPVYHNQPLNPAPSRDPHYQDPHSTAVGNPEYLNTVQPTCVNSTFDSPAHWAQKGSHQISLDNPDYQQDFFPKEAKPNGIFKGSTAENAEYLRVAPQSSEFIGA

SMILES | Biochem EGFR % Inhibition (P.167) [%]
Cc1c(O)ccc(C=C2C(=O)Nc3c(Br)cc(Br)c(C)c32)c1O [10718/H09] | 34.2
Cc1c(Br)cc(Br)c2c1C(=Cc1ccco1)C(=O)N2 [10718/H10] | −5.7
Cc1c(Br)cc(Br)c2c1C(=Cc1ccc([N+](=O)[O-])o1)C(=O)N2 [10718/H11] | 4.4
CCOc1ccc(C=C2C(=O)Nc3c(Br)cc(Br)c(C)c32)cc1OC [10719/H02] | 43.9
Cc1c(Br)cc(Br)c2c1C(=Cc1ccc(O)c(O)c1)C(=O)N2 [10719/H03] | 25.1
COc1ccc(C=C2C(=O)Nc3c(Br)cc(Br)c(C)c32)c(OC)c1 [10719/H04] | −0.5
CCc1c(C)[nH]c(C=C2C(=O)Nc3c(Br)cc(Br)c(C)c32)c1C [10719/H05] | 7.9
COc1cc(OC)c(C=C2C(=O)Nc3c(Br)cc(Br)c(C)c32)c(OC)c1 [10719/H06] | −28.0
CCN(CC)c1ccc(C=C2C(=O)Nc3c(Br)cc(Br)c(C)c32)c(O)c1 [10734/H05] | 4.7
Cc1c(Br)cc(Br)c2c1C(=Cc1ccc([N+](=O)[O-])cc1)C(=O)N2 [10734/H06] | −32.2
Cc1c(Br)cc(Br)c2c1C(=Cc1cc(Br)cc(Br)c1O)C(=O)N2 [10734/H07] | 6.6
Cc1c(Br)cc(Br)c2c1C(=Cc1cccc(F)c1O)C(=O)N2 [10734/H08] | 2.9
Cc1c(Br)cc(Br)c2c1C(=Cc1ccc(O)c(Br)c1)C(=O)N2 [10734/H09] | −4.2
Cc1c(Br)cc(Br)c2c1C(=Cc1ccc(C(C)(C)C)cc1)C(=O)N2 [10734/H10] | −12.6
Cc1c(Br)cc(Br)c2c1C(=Cc1ccc(Br)s1)C(=O)N2 [10734/H11] | −8.5
Cc1ccccc1C=C1C(=O)Nc2c(Br)cc(Br)cc21 [10735/A02] | 14.3
O=C1Nc2c(Br)cc(Br)cc2C1=Cc1ccc(F)c(F)c1 [10735/A03] | 28.8
O=C1Nc2c(Br)cc(Br)cc2C1=Cc1cc(F)cc(F)c1 [10735/A04] | 5.0
O=C1Nc2c(Br)cc(Br)cc2C1=Cc1cccc(C(F)(F)F)c1 [10735/A05] | 41.5
O=C1Nc2c(Br)cc(Br)cc2C1=Cc1cc(C(F)(F)F)cc(C(F)(F)F)c1 [10735/A06] | 24.9
N#Cc1ccccc1C=C1C(=O)Nc2c(Br)cc(Br)cc21 [10735/A07] | 18.7
O=C1Nc2c(Br)cc(Br)cc2C1=Cc1c(F)cccc1F [10735/A08] | 10.9
O=C1Nc2c(Br)cc(Br)cc2C1=Cc1cccc2ccccc12 [10735/A09] | 13.0
O=C1Nc2c(Br)cc(Br)cc2C1=Cc1ccc(Cl)cc1Cl [10735/A10] | 10.2

SMILES | Biochem EGFR % Inhibition (P.167) [%]
O=C1Nc2c(Br)cc(Br)cc2C1=Cc1ccc(-c2ccccc2)cc1 [10735/A11] | 3.3
Cc1ccccc1C=C1C(=O)Nc2ccc(I)cc21 [10735/B02] | 39.1
O=C1Nc2ccc(I)cc2C1=Cc1ccc(F)c(F)c1 [10735/B03] | 42.9
O=C1Nc2ccc(I)cc2C1=Cc1cc(F)cc(F)c1 [10735/B04] | 49.2
O=C1Nc2ccc(I)cc2C1=Cc1cccc(C(F)(F)F)c1 [10735/B05] | 61.6
O=C1Nc2ccc(I)cc2C1=Cc1cc(C(F)(F)F)cc(C(F)(F)F)c1 [10735/B06] | 49.4
N#Cc1ccccc1C=C1C(=O)Nc2ccc(I)cc21 [10735/B07] | 47.7
O=C1Nc2ccc(I)cc2C1=Cc1c(F)cccc1F [10735/B08] | 24.5
O=C1Nc2ccc(I)cc2C1=Cc1cccc2ccccc12 [10735/B09] | 39.8
O=C1Nc2ccc(I)cc2C1=Cc1ccc(Cl)cc1Cl [10735/B10] | 30.1
O=C1Nc2ccc(I)cc2C1=Cc1ccc(-c2ccccc2)cc1 [10735/B11] | 52.4
Cc1ccccc1C=C1C(=O)Nc2ccc(Br)c(C)c21 [10735/C02] | 1.6
Cc1c(Br)ccc2c1C(=Cc1ccc(F)c(F)c1)C(=O)N2 [10735/C03] | 8.0
Cc1c(Br)ccc2c1C(=Cc1cc(F)cc(F)c1)C(=O)N2 [10735/C04] | 5.8
Cc1c(Br)ccc2c1C(=Cc1cccc(C(F)(F)F)c1)C(=O)N2 [10735/C05] | 14.5
Cc1c(Br)ccc2c1C(=Cc1cc(C(F)(F)F)cc(C(F)(F)F)c1)C(=O)N2 [10735/C06] | 8.5
Cc1c(Br)ccc2c1C(=Cc1ccccc1C#N)C(=O)N2 [10735/C07] | −4.9
Cc1c(Br)ccc2c1C(=Cc1c(F)cccc1F)C(=O)N2 [10735/C08] | −11.3
Cc1c(Br)ccc2c1C(=Cc1cccc3ccccc13)C(=O)N2 [10735/C09] | −22.1
Cc1c(Br)ccc2c1C(=Cc1ccc(Cl)cc1Cl)C(=O)N2 [10735/C10] | −14.4
Cc1c(Br)ccc2c1C(=Cc1ccc(-c3ccccc3)cc1)C(=O)N2 [10735/C11] | −6.4
CNS(=O)(=O)c1ccc2c(c1)C(=Cc1ccccc1C)C(=O)N2 [10735/D02] | 20.3
CNS(=O)(=O)c1ccc2c(c1)C(=Cc1ccc(F)c(F)c1)C(=O)N2 [10735/D03] | 7.5
CNS(=O)(=O)c1ccc2c(c1)C(=Cc1cc(F)cc(F)c1)C(=O)N2 [10735/D04] | 3.8

SMILES | Biochem EGFR % Inhibition (P.167) [%]
CNS(=O)(=O)c1ccc2c(c1)C(=Cc1cccc(C(F)(F)F)c1)C(=O)N2 [10735/D05] | 23.0
CNS(=O)(=O)c1ccc2c(c1)C(=Cc1cc(C(F)(F)F)cc(C(F)(F)F)c1)C(=O)N2 [10735/D06] | 8.0
CNS(=O)(=O)c1ccc2c(c1)C(=Cc1ccccc1C#N)C(=O)N2 [10735/D07] | −17.6
CNS(=O)(=O)c1ccc2c(c1)C(=Cc1c(F)cccc1F)C(=O)N2 [10735/D08] | −1.5
CNS(=O)(=O)c1ccc2c(c1)C(=Cc1cccc3ccccc13)C(=O)N2 [10735/D09] | −0.3
CNS(=O)(=O)c1ccc2c(c1)C(=Cc1ccc(Cl)cc1Cl)C(=O)N2 [10735/D10] | 46.5
CNS(=O)(=O)c1ccc2c(c1)C(=Cc1ccc(-c3ccccc3)cc1)C(=O)N2 [10735/D11] | −16.5
Cc1ccccc1C=C1C(=O)Nc2ccc(S(=O)(=O)Nc3ccc(C(F)(F)F)cc3)cc21 [10735/E02] | 16.7
O=C1Nc2ccc(S(=O)(=O)Nc3ccc(C(F)(F)F)cc3)cc2C1=Cc1ccc(F)c(F)c1 [10735/E03] | 18.9
O=C1Nc2ccc(S(=O)(=O)Nc3ccc(C(F)(F)F)cc3)cc2C1=Cc1cc(F)cc(F)c1 [10735/E04] | 14.3
O=C1Nc2ccc(S(=O)(=O)Nc3ccc(C(F)(F)F)cc3)cc2C1=Cc1cccc(C(F)(F)F)c1 [10735/E05] | 30.6
O=C1Nc2ccc(S(=O)(=O)Nc3ccc(C(F)(F)F)cc3)cc2C1=Cc1cc(C(F)(F)F)cc(C(F)(F)F)c1 [10735/E06] | 8.7
N#Cc1ccccc1C=C1C(=O)Nc2ccc(S(=O)(=O)Nc3ccc(C(F)(F)F)cc3)cc21 [10735/E07] | 27.4
O=C1Nc2ccc(S(=O)(=O)Nc3ccc(C(F)(F)F)cc3)cc2C1=Cc1c(F)cccc1F [10735/E08] | 10.2
O=C1Nc2ccc(S(=O)(=O)Nc3ccc(C(F)(F)F)cc3)cc2C1=Cc1cccc2ccccc12 [10735/E09] | −3.9
O=C1Nc2ccc(S(=O)(=O)Nc3ccc(C(F)(F)F)cc3)cc2C1=Cc1ccc(Cl)cc1Cl [10735/E10] | 19.1
O=C1Nc2ccc(S(=O)(=O)Nc3ccc(C(F)(F)F)cc3)cc2C1=Cc1ccc(-c2ccccc2)cc1 [10735/E11] | 10.1
Cc1ccccc1C=C1C(=O)Nc2ccc(S(=O)(=O)N3CCOCC3)cc21 [10735/F02] | 19.8
O=C1Nc2ccc(S(=O)(=O)N3CCOCC3)cc2C1=Cc1ccc(F)c(F)c1 [10735/F03] | 19.1
O=C1Nc2ccc(S(=O)(=O)N3CCOCC3)cc2C1=Cc1cc(F)cc(F)c1 [10735/F04] | 10.6
O=C1Nc2ccc(S(=O)(=O)N3CCOCC3)cc2C1=Cc1cccc(C(F)(F)F)c1 [10735/F05] | 5.5
O=C1Nc2ccc(S(=O)(=O)N3CCOCC3)cc2C1=Cc1cc(C(F)(F)F)cc(C(F)(F)F)c1 [10735/F06] | 13.0
